What was measured:
[1] = molecular target: recombinant human WT SOD1 (Homo sapiens, UniProt P00441); type: biochemical
[2] = molecular target: SOD1 (Homo sapiens, UniProt P00441); type: biochemical
[3] = molecular target: WT DJ-1 (Homo sapiens, UniProt Q99497); type: biochemical
[4] = molecular target: T1, DJ-1 (Homo sapiens, UniProt Q99497); type: biochemical
[5] = molecular target: T1, DJ-1; type: binding
[6] = in vivo; cited from earlier work

recombinant human WT SOD1, sequence (P00441 whole entry): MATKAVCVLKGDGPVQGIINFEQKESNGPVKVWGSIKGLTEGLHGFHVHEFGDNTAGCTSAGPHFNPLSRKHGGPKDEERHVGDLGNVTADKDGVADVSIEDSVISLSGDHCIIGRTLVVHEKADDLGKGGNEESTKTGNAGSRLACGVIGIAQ
T1 sequence (Q99497 whole entry): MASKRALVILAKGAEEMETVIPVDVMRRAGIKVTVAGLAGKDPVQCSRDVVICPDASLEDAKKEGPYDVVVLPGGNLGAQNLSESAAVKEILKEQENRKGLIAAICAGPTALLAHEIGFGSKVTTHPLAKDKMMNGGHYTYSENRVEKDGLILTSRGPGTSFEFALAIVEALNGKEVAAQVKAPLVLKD
WT DJ-1, sequence (Q99497 whole entry): as above
SOD1, sequence (P00441 whole entry): as the sequence (P00441 whole entry) above

Structure (SMILES)	covalent dimerization of SOD1 [1]	covalent dimerization of DJ-1 [3]	denaturation temperature of DJ-1 [5]	also measured
OCC1(CO)CSSC1 [1,2-dithiolane-4,4-dimethanol]	capable of covalently dimerizing SOD1	–	–	–
O=C1C=CC(=O)N1CCSSCCN1C(=O)C=CC1=O [DTME, dithio-bismaleimidocthane]	–	–	–	cross-linking of SOD1 monomers [2]: able to cross-link SOD1 monomers
[O-][S+]1CCCCS1 (stereo not shown) [NSC56224, 1-oxo-1,2-dithiane]	capable of covalently dimerizing SOD1	covalent dimerizer of DJ-1	increase the measured denaturation temperature of DJ-1	extent of cross-linking of SOD1 monomers [1]: able to cross-link the majority of SOD1 monomers in the sample; site of covalent linkage in DJ-1 dimer [4]: covalently linked DJ-1 dimers at Cys53
NC(=O)NN=C1CSSC1 [NSC72268]	–	specific covalent dimerizer of DJ-1	increase the measured denaturation temperature of DJ-1	–
CC(C)C[C@H](NC(=O)[C@H](Cc1ccccc1)NC(=O)c1cnccn1)B(O)O [bortezomib]	–	–	–	LD100 [6]: < 0.25 mg/kg
